Experimental data: patent US9937151B2, “Carbapenem antibacterials with gram-negative activity” (priority 2010, dated 2018)
Values after ≈ are worked out from the molar mass of the structure shown.

Tested on: G(−) bacterial strains
Test: Dilution antimicrobial susceptibility tests (MIC, NCCLS agar dilution / broth dilution)
Format: cell-based, Gram-negative organisms
Conditions: unit assumed
Experimental: The MIC (minimum inhibitory concentration) was determined by the NCCLS (National Committee for Clinical Laboratory Standards) methods 2000. Methods for dilution antimicrobial susceptibility testing for bacteria that growth aerobically (M7-A5, vol. 20, No. 2). The agar dilution method for determining antimicrobial susceptibility was carried out using Mueller-Hinton agar. A final inoculum of 10^4 CFU/spot was applied with an inoculation device. Broth dilution tests were performed with 5×10^5 CFU/well in 96 well plates. The susceptibilities of streptococci were determined by Mueller-Hinton agar supplemented with 5% sheep blood. All assays were run with the indicated control strains, available from the ATCC (American Type Culture Collection, Rockville, Md.).
Abbreviations used in Table 1 are defined as follows: Cf-R: Ceftazidime Resistance, Ci-R: Ciprofloxacin Resistance, Gen-R: Gentamycin Resistance, Imp-R: Imipenem Resistance, Mp-R: Meropenem Resistance, Ofx-R: Ofloxacin Resistance, B+: β-lactamase Production, AmpC: AmpC-lactamase Hyper production, CBPase: Carbapenemase Production.

[1] = strain #1 Acinetobacter calcoaceticus
[2] = strain #2 Acinetobacter baumannii, Cf-R, Ci-R
[3] = strain #3 Acinetobacter baumannii, Cf-R, Ci-R, Mp-I
[4] = strain #4 Acinetobacter baumannii, Cf-R, Imp-I, CBPase
[5] = strain #7 Enterobacter aerogenes
[6] = strain #8 Enterobacter cloacae, Cf-R, B+
[7] = strain #9 Enterobacter cloacae, Cf-R
[8] = strain #10 Escherichia coli, Ci-R
[9] = strain #11 Escherichia coli, Ci-R, AmpC
[10] = strain #15 Klebsiella pneumoniae
[11] = strain #16 Moraxella catarrhalis
[12] = strain #21 Providencia rettgeri
[13] = strain #22 Salmonella typhimurium
[14] = strain #25 Shigella dysenteriae
[15] = strain #28 Stenotrophomonas maltophilia
[16] = strain #29 Pseudomonas aeruginosa
[17] = strain #30 Pseudomonas aeruginosa
[18] = strain #31 Pseudomonas aeruginosa, Ofx-R
[19] = strain #32 Pseudomonas aeruginosa, Cf-R
[20] = strain #33 Pseudomonas aeruginosa, Ci-R
[21] = strain #34 Pseudomonas aeruginosa, Gen-R
[22] = strain #35 Pseudomonas aeruginosa, Ip-R
[23] = strain #36 Pseudomonas aeruginosa, Cf-R, Ci-R, Mp-R

Structure (SMILES)	MIC [1] [µg/mL]	MIC [2] [µg/mL]	MIC [3] [µg/mL]	MIC [4] [µg/mL]	MIC (strain #5 Citrobacter diversus) [µg/mL]	MIC (strain #6 Citrobacter freundii) [µg/mL]	MIC [5] [µg/mL]	MIC [6] [µg/mL]	MIC [7] [µg/mL]	MIC [8] [µg/mL]	MIC [9] [µg/mL]	MIC (strain #12 Escherichia coli) [µg/mL]	MIC (strain #13 Escherichia coli) [µg/mL]	MIC (strain #14 Klebsiella oxytoca) [µg/mL]	MIC [10] [µg/mL]	MIC [11] [µg/mL]	MIC (strain #17 Morganella Morganii) [µg/mL]	MIC (strain #18 Morganella Morganii) [µg/mL]	MIC (strain #19 Proteus vulgaris) [µg/mL]	MIC (strain #20 Proteus mirabilis) [µg/mL]	also measured
C[C@@H](O)C1C(=O)N2C(C(=O)O)=C(CN3CC[C@H](NC(=O)C(F)(F)F)C3)[C@H](C)C12 (stereo partly drawn) [Compound 37]	2 (≈ 4.93 µM)	4 (≈ 9.87 µM)	8 (≈ 19.7 µM)	4 (≈ 9.87 µM)	0.5 (≈ 1.23 µM)	0.5 (≈ 1.23 µM)	2 (≈ 4.93 µM)	0.5 (≈ 1.23 µM)	1 (≈ 2.47 µM)	0.5 (≈ 1.23 µM)	0.5 (≈ 1.23 µM)	0.5 (≈ 1.23 µM)	0.5 (≈ 1.23 µM)	0.5 (≈ 1.23 µM)	1 (≈ 2.47 µM)	≤ 0.008	2 (≈ 4.93 µM)	2 (≈ 4.93 µM)	1 (≈ 2.47 µM)	0.5 (≈ 1.23 µM)	MIC [12]: 1 µg/mL (≈ 2.47 µM); MIC [13]: 0.5 µg/mL (≈ 1.23 µM); MIC (strain #23 Serratia marcescens): 1 µg/mL (≈ 2.47 µM); MIC (strain #24 Serratia marcescens): 2 µg/mL (≈ 4.93 µM); MIC [14]: 0.5 µg/mL (≈ 1.23 µM); MIC (strain #26 Shigella sonnei): 0.5 µg/mL (≈ 1.23 µM); MIC (strain #27 Shigella flexneri): 0.25 µg/mL (≈ 0.617 µM); MIC [15]: 1 µg/mL (≈ 2.47 µM); MIC [16]: 8 µg/mL (≈ 19.7 µM); MIC [17]: 8 µg/mL (≈ 19.7 µM); MIC [18]: 4 µg/mL (≈ 9.87 µM); MIC [19]: 8 µg/mL (≈ 19.7 µM); MIC [20]: 8 µg/mL (≈ 19.7 µM); MIC [21]: 8 µg/mL (≈ 19.7 µM); MIC [22]: 16 µg/mL (≈ 39.5 µM); MIC [23]: 32 µg/mL (≈ 78.9 µM)
CN[C@H]1CCN(CC2=C(C(=O)O)N3C(=O)C([C@@H](C)O)C3[C@H]2C)C1 (stereo partly drawn) [Compound 43]	0.5 (≈ 1.55 µM)	1 (≈ 3.09 µM)	4 (≈ 12.4 µM)	4 (≈ 12.4 µM)	0.25 (≈ 0.773 µM)	0.25 (≈ 0.773 µM)	1 (≈ 3.09 µM)	0.25 (≈ 0.773 µM)	0.5 (≈ 1.55 µM)	0.25 (≈ 0.773 µM)	0.25 (≈ 0.773 µM)	0.25 (≈ 0.773 µM)	0.25 (≈ 0.773 µM)	0.5 (≈ 1.55 µM)	0.5 (≈ 1.55 µM)	≤ 0.008	2 (≈ 6.18 µM)	2 (≈ 6.18 µM)	1 (≈ 3.09 µM)	0.25 (≈ 0.773 µM)	MIC [12]: 1 µg/mL (≈ 3.09 µM); MIC [13]: 0.5 µg/mL (≈ 1.55 µM); MIC (strain #23 Serratia marcescens): 1 µg/mL (≈ 3.09 µM); MIC (strain #24 Serratia marcescens): 1 µg/mL (≈ 3.09 µM); MIC [14]: 0.5 µg/mL (≈ 1.55 µM); MIC (strain #26 Shigella sonnei): 0.25 µg/mL (≈ 0.773 µM); MIC (strain #27 Shigella flexneri): 0.25 µg/mL (≈ 0.773 µM); MIC [15]: 0.5 µg/mL (≈ 1.55 µM); MIC [16]: 4 µg/mL (≈ 12.4 µM); MIC [17]: 2 µg/mL (≈ 6.18 µM); MIC [18]: 1 µg/mL (≈ 3.09 µM); MIC [19]: 4 µg/mL (≈ 12.4 µM); MIC [20]: 4 µg/mL (≈ 12.4 µM); MIC [21]: 4 µg/mL (≈ 12.4 µM); MIC [22]: 8 µg/mL (≈ 24.7 µM); MIC [23]: 16 µg/mL (≈ 49.5 µM)
C[C@@H](O)C1C(=O)N2C(C(=O)O)=C(CN3CC[C@H](N(C)C)C3)[C@H](C)C12 (stereo partly drawn) [Compound 46]	1 (≈ 2.96 µM)	2 (≈ 5.93 µM)	4 (≈ 11.9 µM)	4 (≈ 11.9 µM)	0.25 (≈ 0.741 µM)	0.5 (≈ 1.48 µM)	1 (≈ 2.96 µM)	0.25 (≈ 0.741 µM)	0.5 (≈ 1.48 µM)	0.25 (≈ 0.741 µM)	0.25 (≈ 0.741 µM)	0.25 (≈ 0.741 µM)	0.25 (≈ 0.741 µM)	0.5 (≈ 1.48 µM)	0.5 (≈ 1.48 µM)	≤ 0.008	2 (≈ 5.93 µM)	2 (≈ 5.93 µM)	1 (≈ 2.96 µM)	0.25 (≈ 0.741 µM)	MIC [12]: 1 µg/mL (≈ 2.96 µM); MIC [13]: 0.25 µg/mL (≈ 0.741 µM); MIC (strain #23 Serratia marcescens): 1 µg/mL (≈ 2.96 µM); MIC (strain #24 Serratia marcescens): 1 µg/mL (≈ 2.96 µM); MIC [14]: 0.5 µg/mL (≈ 1.48 µM); MIC (strain #26 Shigella sonnei): 0.25 µg/mL (≈ 0.741 µM); MIC (strain #27 Shigella flexneri): 0.25 µg/mL (≈ 0.741 µM); MIC [15]: 0.5 µg/mL (≈ 1.48 µM); MIC [16]: 4 µg/mL (≈ 11.9 µM); MIC [17]: 4 µg/mL (≈ 11.9 µM); MIC [18]: 1 µg/mL (≈ 2.96 µM); MIC [19]: 4 µg/mL (≈ 11.9 µM); MIC [20]: 4 µg/mL (≈ 11.9 µM); MIC [21]: 4 µg/mL (≈ 11.9 µM); MIC [22]: 16 µg/mL (≈ 47.4 µM); MIC [23]: 32 µg/mL (≈ 94.8 µM)
